From the kinase profiling compilation of Christmann-Franck et al. (2016)
“And” between values parts separate entries of the source, which are not always exact repeats. Equal values may be shown once.

Legend:
Assay in all cases: radiometric filter-binding kinase assay, Kinase HotSpot
Details in all cases: compound 0.5 µM; ATP 10 µM
[1] = target: BRSK2 (human) (UniProt Q8IWQ3)
[2] = target: CDK2 CCNA2 (human) (UniProt P24941+P20248)
[3] = target: CLK2 (human) (UniProt P49760)
[4] = target: SRC (human) (UniProt P12931)
Chain of SRC (human) (P12931 whole entry, looked up): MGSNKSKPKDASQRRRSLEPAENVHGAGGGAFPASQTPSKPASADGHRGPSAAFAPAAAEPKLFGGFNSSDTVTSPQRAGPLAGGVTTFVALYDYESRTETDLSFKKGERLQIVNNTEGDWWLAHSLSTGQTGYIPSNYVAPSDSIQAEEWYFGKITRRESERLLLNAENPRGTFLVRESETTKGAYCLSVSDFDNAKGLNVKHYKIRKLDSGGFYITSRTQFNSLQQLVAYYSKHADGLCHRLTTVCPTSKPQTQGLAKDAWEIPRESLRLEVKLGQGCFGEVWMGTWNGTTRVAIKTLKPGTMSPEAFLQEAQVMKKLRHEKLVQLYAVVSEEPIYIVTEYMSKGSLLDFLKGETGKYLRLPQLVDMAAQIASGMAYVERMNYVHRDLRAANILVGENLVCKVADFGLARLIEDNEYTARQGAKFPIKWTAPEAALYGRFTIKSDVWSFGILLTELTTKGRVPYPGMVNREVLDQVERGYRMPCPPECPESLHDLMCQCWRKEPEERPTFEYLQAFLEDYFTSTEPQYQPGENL

[5] = target: EPHA3 (human) (UniProt P29320)
[6] = target: ERBB2 (human) (UniProt P04626)
[7] = target: TSSK2 (human) (UniProt Q96PF2)
[8] = target: PLK2 (human) (UniProt Q9NYY3)
[9] = target: AKT2 (human) (UniProt P31751)
[10] = target: DYRK3 (human) (UniProt O43781)
[11] = target: NUAK1 (human) (UniProt O60285)
[12] = target: MELK (human) (UniProt Q14680)
[13] = target: MKNK2 (human) (UniProt Q9HBH9)
[14] = target: MAPKAPK3 (human) (UniProt Q16644)
[15] = target: CSNK1G3 (human) (UniProt Q9Y6M4)
[16] = target: DMPK (human) (UniProt Q09013)
[17] = target: PASK (human) (UniProt Q96RG2)
[18] = target: CDK1 CCNA2 (human) (UniProt P06493+P20248)
[19] = target: TSSK1B (human) (UniProt Q9BXA7)
Chain of TSSK1B (human) (Q9BXA7 whole entry, looked up): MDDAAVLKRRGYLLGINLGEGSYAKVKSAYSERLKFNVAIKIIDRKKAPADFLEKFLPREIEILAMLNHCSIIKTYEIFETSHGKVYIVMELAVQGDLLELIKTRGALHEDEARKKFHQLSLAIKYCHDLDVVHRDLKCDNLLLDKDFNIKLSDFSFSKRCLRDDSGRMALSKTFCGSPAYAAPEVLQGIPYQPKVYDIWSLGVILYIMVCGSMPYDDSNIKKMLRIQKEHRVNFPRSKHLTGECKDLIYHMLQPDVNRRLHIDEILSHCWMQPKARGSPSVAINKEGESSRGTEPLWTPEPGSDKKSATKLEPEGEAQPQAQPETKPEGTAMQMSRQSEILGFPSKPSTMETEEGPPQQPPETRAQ

[20] = target: NTRK3 (human) (UniProt Q16288)
Chain of NTRK3 (human) (Q16288 whole entry, looked up): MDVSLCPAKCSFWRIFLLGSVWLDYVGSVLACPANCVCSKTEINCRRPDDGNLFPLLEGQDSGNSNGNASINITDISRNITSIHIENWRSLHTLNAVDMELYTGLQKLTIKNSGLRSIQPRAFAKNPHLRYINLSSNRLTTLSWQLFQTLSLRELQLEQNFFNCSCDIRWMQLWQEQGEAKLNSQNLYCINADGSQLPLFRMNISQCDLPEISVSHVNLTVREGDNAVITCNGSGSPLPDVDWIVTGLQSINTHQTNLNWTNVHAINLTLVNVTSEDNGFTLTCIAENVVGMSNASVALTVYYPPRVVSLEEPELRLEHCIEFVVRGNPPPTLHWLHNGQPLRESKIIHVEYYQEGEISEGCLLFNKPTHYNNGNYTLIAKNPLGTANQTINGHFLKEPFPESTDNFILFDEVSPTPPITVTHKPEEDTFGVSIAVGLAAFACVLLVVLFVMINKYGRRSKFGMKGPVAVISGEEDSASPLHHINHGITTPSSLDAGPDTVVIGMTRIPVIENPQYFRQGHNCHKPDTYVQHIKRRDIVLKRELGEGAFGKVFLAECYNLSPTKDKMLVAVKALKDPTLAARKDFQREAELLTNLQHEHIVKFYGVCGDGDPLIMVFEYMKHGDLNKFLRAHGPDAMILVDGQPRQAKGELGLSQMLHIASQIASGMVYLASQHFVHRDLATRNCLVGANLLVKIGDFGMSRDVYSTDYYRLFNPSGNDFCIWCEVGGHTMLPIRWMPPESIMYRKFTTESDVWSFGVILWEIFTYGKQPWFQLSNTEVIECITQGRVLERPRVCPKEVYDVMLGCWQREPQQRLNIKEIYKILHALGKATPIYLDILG

[21] = target: ROCK1 (human) (UniProt Q13464)
[22] = target: MAP3K11 (human) (UniProt Q16584)
Chain of MAP3K11 (human) (Q16584 whole entry, looked up): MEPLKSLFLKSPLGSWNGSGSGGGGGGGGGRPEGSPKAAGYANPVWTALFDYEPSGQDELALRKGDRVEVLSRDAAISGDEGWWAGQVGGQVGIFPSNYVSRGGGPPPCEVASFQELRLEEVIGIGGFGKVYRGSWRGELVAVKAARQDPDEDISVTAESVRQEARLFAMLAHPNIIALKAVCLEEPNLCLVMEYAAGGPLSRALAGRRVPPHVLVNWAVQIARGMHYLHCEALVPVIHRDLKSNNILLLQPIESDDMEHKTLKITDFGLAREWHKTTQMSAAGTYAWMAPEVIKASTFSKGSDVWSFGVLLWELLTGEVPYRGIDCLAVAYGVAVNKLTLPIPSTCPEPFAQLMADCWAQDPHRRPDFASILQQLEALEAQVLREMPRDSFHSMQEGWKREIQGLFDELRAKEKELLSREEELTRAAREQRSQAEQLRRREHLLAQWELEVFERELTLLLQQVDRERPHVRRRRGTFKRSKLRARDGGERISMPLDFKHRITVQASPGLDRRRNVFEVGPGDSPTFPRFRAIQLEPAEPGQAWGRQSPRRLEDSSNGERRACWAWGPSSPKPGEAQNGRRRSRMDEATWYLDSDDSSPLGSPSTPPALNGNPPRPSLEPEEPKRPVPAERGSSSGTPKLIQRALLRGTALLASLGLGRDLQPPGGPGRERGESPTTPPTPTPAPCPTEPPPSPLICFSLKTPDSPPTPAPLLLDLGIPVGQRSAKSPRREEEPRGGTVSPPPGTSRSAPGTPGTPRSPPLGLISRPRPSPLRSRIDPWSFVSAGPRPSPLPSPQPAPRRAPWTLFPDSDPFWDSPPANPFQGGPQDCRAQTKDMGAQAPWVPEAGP

[23] = target: LYN (human) (UniProt P07948)
Chain of LYN (human) (P07948 whole entry, looked up): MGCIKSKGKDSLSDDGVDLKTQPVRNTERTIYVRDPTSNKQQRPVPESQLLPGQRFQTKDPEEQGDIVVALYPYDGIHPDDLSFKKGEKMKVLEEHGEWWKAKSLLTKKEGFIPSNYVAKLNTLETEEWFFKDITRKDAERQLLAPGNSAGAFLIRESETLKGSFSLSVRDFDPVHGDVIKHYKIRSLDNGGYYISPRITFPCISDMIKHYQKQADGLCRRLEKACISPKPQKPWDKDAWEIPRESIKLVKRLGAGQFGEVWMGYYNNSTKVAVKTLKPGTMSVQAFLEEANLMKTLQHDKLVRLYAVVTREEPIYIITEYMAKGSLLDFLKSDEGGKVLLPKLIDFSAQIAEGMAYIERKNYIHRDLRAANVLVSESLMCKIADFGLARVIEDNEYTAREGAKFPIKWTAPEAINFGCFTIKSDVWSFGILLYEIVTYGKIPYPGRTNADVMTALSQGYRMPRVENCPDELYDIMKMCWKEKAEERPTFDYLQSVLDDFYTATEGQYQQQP

[24] = target: INSR (human) (UniProt P06213)
[25] = target: DSTYK (human) (UniProt Q6XUX3)
[26] = target: PRKCB2 (human) (UniProt P05771)
[27] = target: CSK (human) (UniProt P41240)
[28] = target: RPS6KA2 KD1 KD2 (human) (UniProt Q15349)
[29] = target: NEK3 (human) (UniProt P51956)
[30] = target: VRK1 (human) (UniProt Q99986)
[31] = target: HIPK3 (human) (UniProt Q9H422)
[32] = target: CSNK2A2 (human) (UniProt P19784)
Chain of CSNK2A2 (human) (P19784 whole entry, looked up): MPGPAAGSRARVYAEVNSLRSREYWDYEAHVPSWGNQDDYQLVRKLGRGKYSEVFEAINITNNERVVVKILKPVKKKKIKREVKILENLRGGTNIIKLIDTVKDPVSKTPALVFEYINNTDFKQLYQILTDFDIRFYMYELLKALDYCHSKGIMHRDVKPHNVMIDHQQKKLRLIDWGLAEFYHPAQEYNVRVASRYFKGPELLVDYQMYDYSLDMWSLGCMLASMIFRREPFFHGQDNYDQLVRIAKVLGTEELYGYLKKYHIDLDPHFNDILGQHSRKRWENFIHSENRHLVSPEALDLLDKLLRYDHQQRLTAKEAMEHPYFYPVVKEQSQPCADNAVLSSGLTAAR

[33] = target: HCK (human) (UniProt P08631)
Chain of HCK (human) (P08631 whole entry, looked up): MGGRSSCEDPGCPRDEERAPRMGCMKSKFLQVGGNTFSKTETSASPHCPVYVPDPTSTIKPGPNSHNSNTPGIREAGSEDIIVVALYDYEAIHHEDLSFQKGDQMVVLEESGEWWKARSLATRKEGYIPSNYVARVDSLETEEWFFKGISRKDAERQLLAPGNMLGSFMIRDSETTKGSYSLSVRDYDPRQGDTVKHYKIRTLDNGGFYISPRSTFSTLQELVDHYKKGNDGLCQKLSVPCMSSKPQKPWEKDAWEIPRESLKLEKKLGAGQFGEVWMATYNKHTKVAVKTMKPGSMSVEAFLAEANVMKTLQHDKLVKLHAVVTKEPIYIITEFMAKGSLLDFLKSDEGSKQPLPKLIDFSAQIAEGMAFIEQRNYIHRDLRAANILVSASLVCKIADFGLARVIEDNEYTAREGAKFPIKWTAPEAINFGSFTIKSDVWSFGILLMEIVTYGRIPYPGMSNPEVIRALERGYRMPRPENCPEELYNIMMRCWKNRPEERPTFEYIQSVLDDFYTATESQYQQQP

[34] = target: NEK7 (human) (UniProt Q8TDX7)
Chain of NEK7 (human) (Q8TDX7 whole entry, looked up): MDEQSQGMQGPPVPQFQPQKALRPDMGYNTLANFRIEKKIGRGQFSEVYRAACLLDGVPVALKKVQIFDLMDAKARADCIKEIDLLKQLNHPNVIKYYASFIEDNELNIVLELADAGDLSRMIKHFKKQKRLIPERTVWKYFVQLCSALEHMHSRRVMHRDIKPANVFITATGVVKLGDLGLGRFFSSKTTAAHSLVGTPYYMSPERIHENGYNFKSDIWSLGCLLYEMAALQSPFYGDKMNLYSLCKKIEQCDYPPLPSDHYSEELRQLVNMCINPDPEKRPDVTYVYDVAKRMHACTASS

[35] = target: IKBKE (human) (UniProt Q14164)
[36] = target: MUSK (human) (UniProt O15146)
[37] = target: TBK1 (human) (UniProt Q9UHD2)
[38] = target: LCK (human) (UniProt P06239)
[39] = target: MINK1 (human) (UniProt Q8N4C8)
[40] = target: PAK3 (human) (UniProt O75914)
[41] = target: MAPKAPK2 (human) (UniProt P49137)
[42] = target: PAK4 (human) (UniProt O96013)

Chain of BRSK2 (human) (Q8IWQ3 whole entry, looked up): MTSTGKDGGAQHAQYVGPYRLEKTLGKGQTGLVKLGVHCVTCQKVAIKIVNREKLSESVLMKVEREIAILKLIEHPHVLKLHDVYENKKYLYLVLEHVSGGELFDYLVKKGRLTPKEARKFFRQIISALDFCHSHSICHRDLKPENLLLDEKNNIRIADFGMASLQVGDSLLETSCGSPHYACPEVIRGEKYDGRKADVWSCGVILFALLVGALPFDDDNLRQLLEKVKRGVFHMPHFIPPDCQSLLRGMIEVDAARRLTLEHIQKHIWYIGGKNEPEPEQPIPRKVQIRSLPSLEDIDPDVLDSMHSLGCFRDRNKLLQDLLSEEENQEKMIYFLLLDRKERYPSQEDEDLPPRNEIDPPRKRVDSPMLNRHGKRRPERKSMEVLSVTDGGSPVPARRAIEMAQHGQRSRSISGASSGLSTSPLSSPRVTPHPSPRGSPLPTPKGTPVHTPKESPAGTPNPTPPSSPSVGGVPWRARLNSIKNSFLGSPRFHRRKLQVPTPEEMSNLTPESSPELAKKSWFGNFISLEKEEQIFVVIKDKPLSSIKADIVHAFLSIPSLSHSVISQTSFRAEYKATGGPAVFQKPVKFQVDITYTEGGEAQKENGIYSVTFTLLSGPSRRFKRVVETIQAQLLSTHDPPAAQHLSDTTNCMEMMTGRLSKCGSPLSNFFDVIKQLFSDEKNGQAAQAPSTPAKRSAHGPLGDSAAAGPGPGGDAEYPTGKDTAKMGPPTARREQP

With `Oc1ccc(Nc2nc(-c3ccc(Cl)cc3)cs2)cc1` the residual activity [1] was 101%, the residual activity [2] was 98.6% and the residual activity [3] was 102%. The residual activity [4] was 95.1%, the residual activity [5] was 110% and the residual activity [6] was 96.9%. For the same compound, the residual activity [7] was 102%, the residual activity [8] was 105% and the residual activity [9] was 96.4%. For the same compound, the residual activity [10] was 101%, the residual activity [11] was 90.7% and the residual activity [12] was 100%. It also gave a residual activity [13] of 84.5%, a residual activity [14] of 94.1% and a residual activity [15] of 103%. For the same compound, the residual activity [16] was 102%, the residual activity [17] was 131% and the residual activity [18] was 91.2%. For the same compound, the residual activity [19] was 119%, the residual activity [20] was 102% and the residual activity [21] was 103%. The residual activity [22] was 95.3%, the residual activity [23] was 100% and the residual activity [24] was 88.9%. For the same compound, the residual activity [25] was 104%, the residual activity [26] was 94.7% and the residual activity [27] was 101%. The residual activity [28] was 101%, the residual activity [29] was 98.4% and the residual activity [30] was 99.8%. For the same compound, the residual activity [31] was 109%, the residual activity [32] was 96.9% and the residual activity [33] was 96.1%. The residual activity [34] was 106%, the residual activity [35] was 95.9% and the residual activity [36] was 99.5%. For the same compound, the residual activity [37] was 95.2%, the residual activity [38] was 99.8% and the residual activity [39] was 103%. For the same compound, the residual activity [40] was 124%, the residual activity [41] was 100% and the residual activity [42] was 102%.

`O=C1NC(=O)/C(=C\c2ccc3nccnc3c2)S1` gave a residual activity [1] of 90.9%, a residual activity [2] of 99.7% and a residual activity [3] of 74%. It also gave a residual activity [4] of 102%, a residual activity [5] of 97.1% and a residual activity [6] of 107%. It also gave a residual activity [7] of 88.7%, a residual activity [8] of 95.7% and a residual activity [9] of 101%. It also gave a residual activity [10] of 71.5%, a residual activity [11] of 92.8% and a residual activity [12] of 90.7%. For the same compound, the residual activity [13] was 98.2%, the residual activity [14] was 104% and the residual activity [15] was 79.9%. For the same compound, the residual activity [16] was 112%, the residual activity [17] was 87.7% and the residual activity [18] was 90.7%. The residual activity [19] was 78.6%, the residual activity [20] was 95.3% and the residual activity [21] was 94%. For the same compound, the residual activity [22] was 97.5%, the residual activity [23] was 99.2% and 99.6% and the residual activity [24] was 108%. It also gave a residual activity [25] of 89.9%, a residual activity [26] of 103% and a residual activity [27] of 86.3%. For the same compound, the residual activity [28] was 85.4%, the residual activity [29] was 97.3% and the residual activity [30] was 94.9%. It also gave a residual activity [31] of 92.4%, a residual activity [32] of 3.08% and a residual activity [33] of 92.2%. It also gave a residual activity [34] of 105%, a residual activity [35] of 99.5% and a residual activity [36] of 16.2%. The residual activity [37] was 90.6%, the residual activity [38] was 98.6% and the residual activity [39] was 88.3%. The residual activity [40] was 97.4%, the residual activity [41] was 97.7% and the residual activity [42] was 88.5%.
